Data set [1] concerns Enterococcus faecium (VanA VRE, ATCC BAA-2317). Put plainly: In vitro antimicrobial assay (MIC), VanA E. faecium. The format is cell-based. An excerpt: (§1) One day before a study was run, fresh cultures of vancomycin-sensitive Staphylococcus aureus (VSSA strain ATCC 25923), methicillin and oxacillin-resistant Staphylococcus aureus subsp. aureus (MRSA strain ATCC 43300), vancomycin-resistant Enterococcus faecalis (VanA VRE, BM4166), Enterococcus faecium (VanA VRE, ATCC BAA-2317), vancomycin-resistant Enterococcus faecalis (VanB VRE, strain ATCC 51299), Escherichia coli (ATCC 25922), Acinetobacter baumannii (ATCC BAA-1710), Pseudomonas aeruginosa (ATCC 15442), Klebsiella pneumoniae (ATCC 700603) were inoculated and grown in an orbital shaker at 37° C. in 100% Mueller-Hinton broth (VSSA, MRSA and VanB VRE), 100% brain-heart infusion broth (VanA VRE, A. baumannii and K. pneumoniae) or 100% Luria broth (E. coli and P. aeruginosa). After 24 hours, the bacterial stock solutions were serially diluted with the culture medium (10% Mueller-Hinton broth for VSSA, MRSA and VanB VRE or 10% brain-heart infusion broth for VanA VRE A. baumannii and K. pneumoniae or 10% Luria Broth for E. coli and P. aeruginosa) to achieve a turbidity equivalent to a 1:100 dilution of a 0.5 M McFarland solution. This diluted bacterial stock solution was then inoculated in a 96-well V-shaped glass coated microtiter plate, supplemented with serial diluted aliquots of the antibiotic solution in DMSO (4 μL), to achieve a total assay volume of 0.1 mL. The plate was then incubated at 37° C. for 18 hours, after which minimal inhibitory concentrations (MICs) were determined by monitoring the cell growth (observed as a pellet) in the wells.
(§2) The lowest concentration of antibiotic (in μg/mL) capable of eliminating cell growth in the wells is the reported MIC value. The reported MIC values for the vancomycin analogues were determined against vancomycin as a standard in the first well.*
(§3) [*Clinical and Laboratory Standards Institute. Methods for Dilution Antimicrobial Susceptibility Tests for Bacteria That Grow Aerobically; Approved Standard, 7th ed.; CLSI document M07-A8; Clinical and Laboratory Standards Institute: Wayne, Pa., 2009.]

For data set [2], the system named is vancomycin-sensitive Staphylococcus aureus (VSSA strain ATCC 25923). The following applies: previously reported data; cited from earlier work.
The subject of data set [3] is VanA VRE (E. faecalis BM 4166 and E. faecium ATCC BAA-2317). Put plainly: Cell wall biosynthesis inhibition assay (accumulation of UDPMurNAc-pp 19). The format is cell-based, Enterococcus faecalis; Enterococcus faecium. Conditions: 35 μg/mL, tetracycline pretreated VanA VRE, 30 minutes, 37° C. The source says:
The inhibition of bacterial cell wall synthesis was established in an assay that quantitates the accumulation of the peptidoglycan precursor UDP-N-acetyl-muramyl-depsipentapeptide (Compound 19, UDPMurNAc-pp), resulting from inhibited cell wall incorporation following antibiotic treatment. […] This procedure was reduced in scale and modified to enlist reverse-phase HPLC separation, UV detection, and calibration curve determination of the amount of isolated 19, permitting use with limited sample sizes. A larger scale isolation and full characterization of 19 provided the material needed to establish a linear calibration curve.
The bacterial suspension was heated at 100° C. for 15 minutes to release cytosolic 19. The entire supernatant was analyzed by semi-preparative reverse-phase HPLC with a single injection and the amount of 19 was quantitated with use of the calibration curve.
Cultures of vancomycin-resistant Enterococcus faecalis (VanA VRE, BM4166) and Enterococcus faecium (VanA VRE, ATCC BAA-2317) were inoculated and grown in an orbital shaker at 37° C. in 100% brain-heart infusion broth for 12 hours. The above bacterial solution was subjected to a subculture to obtain fresh mid-log phase bacterial cells (total volume of bacterial suspension=5 mL, incubation time=6 hours, OD600=0.6). […] Vancomycin analogues were added and the mixture was incubated at 37° C. for a further 30 minutes.
After the bacteria were harvested (3000 rpm, 4° C., 20 minutes), this bacterial precipitate was washed and resuspended in 5 mM glucose and 5 mM HEPES buffer (500 μL, 1:1, pH=7.2). This bacterial suspension was heated at 100° C. for 15 minutes and centrifuged (13000 rpm, 25° C., 10 minutes). […] [*****Allen et al., Antimicrob. Agents Chemother. 1996, 40(10):2356-2362]; Liu et al., J. Am. Chem. Soc. 2001, 123:9916-9917.] The amount of UDP Mur N-Ac pentapeptide (19) was quantified by use of calibration curves for E. faecalis BM4166, and for E. faecium ATCC BAA-2317 based on the area under the curve (AUC).

For data set [4] the following is noted: D-Ala-D-Lac versus D-Ala-D-Ala; cited from earlier work.
For data set [5], the system named is vancomycin-resistant Enterococcus faecalis (VanA VRE, BM4166). Conditions: BM 4166; previously reported data; cited from earlier work.
The test system of data set [6] is red blood cells (pig whole blood). Kind of data set: Hemolysis assay. The format is cell-based. The following applies: assay time extended to 24 hours. On the procedure:
The blood cells in pig whole blood (2 mL, Pel-Free Biologicals, non-sterile, sodium citrate) were harvested (3000 rpm, 4° C., 20 minutes), and the red blood precipitate was washed and resuspended in phosphate buffered saline (pH 7.4). This diluted red blood cell stock solution (384 μL) was incubated with the antibiotic solution in DMSO (16 μL) in a 1 mL microtube to achieve the final concentration of the test compounds. […]
The solution was diluted with phosphate buffer saline (pH 7.4, 200 μL) at 25° C. and centrifuged (3000 rpm, 4° C., 20 minutes). The supernatant (200 μL) was transferred to a microtiter plate. A positive control (0.2% vol % Triton® X-100, 100% total hemolysis) and the negative control (no antibiotic, 0% hemolysis) were prepared. A350 was measured using a microplate reader (Molecular Devices®, Max Gemini EX). The % hemolysis was determined by calculating the following equation shown below (eq. 1).
Although the differences in mammalian and bacterial cell wall composition are extensive, including the more highly anionic composition of the bacterial cell wall responsible for a preferential and differential cation binding, lysis of mammalian cell membranes (red blood cells) are potential off-target consequences of cationic compounds that impact bacterial cell membrane integrity. […]

Data set [7] relates to Enterococcus faecium (VanA VRE, ATCC BAA-2317). The following applies: previously reported data; cited from earlier work.
In data set [8] the test system is vancomycin-resistant Enterococcus faecalis (VanB VRE, strain ATCC 51299). The following applies: previously reported data; cited from earlier work.
The subject of data set [9] is methicillin and oxacillin-resistant Staphylococcus aureus subsp. aureus (MRSA strain ATCC 43300). Conditions: previously reported data; cited from earlier work.
Data set [10] relates to vancomycin-resistant Enterococcus faecalis (VanA VRE, BM4166). Kind of data set: In vitro antimicrobial assay (MIC), VanA E. faecalis. Format: cell-based. The following applies: for antibiotic susceptibility profile of the strain: VanA E. faecalis BM 4166.
From the text: as §1, §2, §3

Data set [11] deals with VanA VRE (E. faecalis BM 4166 and E. faecium ATCC BAA-2317). Put plainly: Cell wall permeability assay (propidium iodide uptake). Format: cell-based, Enterococcus faecalis; Enterococcus faecium. The following applies: 10 μM compound. The source says:
The effect of the compounds on cell membrane permeability was examined by measuring cytoplasmic membrane uptake of the fluorescent probe propidium iodide in the same VanA vancomycin-resistant E. faecalis (BM 4166) and E. faecium (ATCC BAA-2317) strains. This fluorescent probe only enters cells with permeabilized cell membranes and is detected by the emission of fluorescence upon intracellular nucleic acid binding [Boulos et al., J Microbiol Methods 1999, 37(1):77-86].
Fresh, mid-log phase VanA VRE in pH 7.2 buffer at 25° C. were preincubated with propidium iodide (10 μM) for 5 minutes before the test compounds were added, monitoring the fluorescence emission at 617 nm (excitation at 535 nm) over time, both pre (5 minutes) and post (15 minutes) compound addition. Rapid and sustained increases in fluorescence intensity are observed immediately upon addition of test compounds that induce bacterial cell membrane permeability.
One day before a study was run, cultures of vancomycin-resistant Enterococcus faecalis (VanA VRE, BM4166) and Enterococcus faecium (VanA VRE, ATCC BAA-2317), were inoculated and grown in an orbital shaker at 37° C. in 100% brain-heart infusion broth for 12 hours. The above bacterial solution was subjected to a subculture to obtain fresh mid-log phase bacterial cells (total volume of bacterial suspension=7 mL, incubation time=6 hours, OD600=0.6). After the cultured bacteria were harvested (3000 rpm, 4° C., 20 minutes), the white bacterial precipitate was washed and resuspended in 5 mM glucose and 5 mM HEPES buffer (1:1, 500 μL, pH=7.2).
This bacterial suspension (130 μL) was charged into a 96-well black plate with a clear bottom (Corning 3650). The propidium iodide dye (10 μL, 150 μM DMSO solution) was added to the above suspension and the fluorescence was monitored at 25° C. for 5 minutes at 30 second intervals using a microplate reader (Molecular Devices®, Max Gemini EX) at an excitation wavelength of 535 nm and an emission wavelength of 617 nm. The test compound (150 μM, 10 μL) was added to the cell suspension and the fluorescence was monitored at 25° C. for an additional 15 minutes.

Data set [12] deals with VanA VRE (E. faecalis BM4166 and E. faecium ATCC BAA-2317). Kind of data set: Resistance development study (serial passaging at 0.5×MIC). The following applies: 0.5×MIC serial exposure, MICs monitored daily. Format: cell-based, Enterococcus faecalis; Enterococcus faecium. On the procedure:
However, an additional and even more important feature of the expression of multiple independent mechanisms of action is a mechanism's impact on the rate at which bacterial resistance may emerge.
The MICs of the vancomycin analogues against vancomycin-resistant Enterococcus faecalis (VanA VRE, BM4166) and Enterococcus faecium (VanA VRE, ATCC BAA-2317) were determined. […] A new MIC assay was performed with the same protocol. This process was repeated for 50 passages, and the fold increase in MIC was determined at each passage. [****Pollard et al., J. Antimicrob. Chemother. 2012, 67:2665-2672.]

Entries after “also recorded” stand apart in the source; their conditions may differ. Like-named read-outs stand apart in the source and are kept apart here.

Consider `CN[C@H](CC(C)C)C(=O)N[C@H]1C(=O)N[C@@H](CC(N)=O)C(=O)N[C@H]2C(=O)N[C@H]3C(=O)N[C@H](C(=O)N[C@H](C(=O)O)c4cc(O)cc(O)c4-c4cc3ccc4O)[C@H](O)c3ccc(c(Cl)c3)Oc3cc2cc(c3O[C@@H]2O[C@H](CO)[C@@H](O)[C@H](O)[C@H]2O[C@H]2C[C@](C)(N)[C@H](O)[C@H](C)O2)Oc2ccc(cc2Cl)[C@H]1O` [Compound 1, vancomycin], for which the “Antimicrobial Activity, MIC, VanA E. faecium” value in [1] (ATCC BAA-2317) and in data set [7] was 250 µg/mL throughout. Further, the “antibiotic susceptibility profile of the strain” value in data set [1] (VanA E. faecium ATCC BAA-2317) and in [10] was “resistant” each time. Further, the “Antimicrobial Activity, MIC, sensitive S. aureus” value in data set [2] was 0.5 µg/mL. For the same compound, the “inhibition of bacterial cell wall synthesis (accumulation of 19)” value in data set [3] was “do not effectively inhibit bacterial cell wall synthesis”. The “reduction of binding affinity for the altered ligand” value in [4] is given as 1000 fold. In addition, the “Antimicrobial Activity, MIC, VanA E. faecalis” value in data set [5] and in data set [10] (BM 4166) was 250 µg/mL each time. Further, in [6], the “red blood cell hemolytic activity, extended exposure” value is “no different from the control tigecycline”. Moreover, the “Antimicrobial Activity, MIC, VanB E. faecalis” value in data set [8] is 8 µg/mL. In [9], the “Antimicrobial Activity, MIC, MRSA S. aureus” value was 0.5 µg/mL.
For the compound `CCCCCCCCCCCCCC[N+](C)(C)CCCNC(=O)[C@H]1NC(=O)[C@H]2NC(=O)[C@@H](NC(=O)[C@@H]3NC(=O)[C@H](CC(N)=O)NC(=O)[C@H](NC(=O)[C@@H](CC(C)C)NC)[C@H](O)c4ccc(c(Cl)c4)Oc4cc3cc(c4OC3OC(CO)C(O)[C@H](O)[C@@H]3O[C@H]3CC(C)(N)[C@H](O)[C@H](C)O3)Oc3ccc(cc3Cl)[C@H]2O)c2ccc(O)c(c2)-c2c(O)cc(O)cc21` (stereo partly drawn) [Compound 12], the minimum inhibitory concentration (MIC) (as a rule, the smallest concentration in the dilution series that meets the test's criterion for growth inhibition) in data set [1] (Enterococcus faecium, read-out: Antimicrobial Activity, MIC, VanA E. faecium) is 2 µg/mL; in data set [10] (Enterococcus faecalis, VRE, read-out: Antimicrobial Activity, MIC, VanA E. faecalis) it was 2 µg/mL. Moreover, the “induced cell membrane permeability (propidium uptake)” value in data set [11] is recorded as “produced pronounced, rapid cell membrane permeability”. Besides, the “red blood cell hemolytic activity, extended exposure” value in data set [6] is listed as “performed worse than the control daptomycin”.
As for `CCCCCCCCCC(=O)N[C@@H](Cc1c[nH]c2ccccc12)C(=O)N[C@H](CC(N)=O)C(=O)N[C@@H](CC(=O)O)C(=O)N[C@@H]1C(=O)NCC(=O)N[C@@H](CCCN)C(=O)N[C@@H](CC(=O)O)C(=O)N[C@H](C)C(=O)N[C@@H](CC(=O)O)C(=O)NCC(=O)N[C@H](CO)C(=O)N[C@@H]([C@H](C)CC(=O)O)C(=O)N[C@@H](CC(=O)c2ccccc2N)C(=O)O[C@@H]1C` [daptomycin], in data set [12], the “emergence of resistance on serial passaging” value is “arises much faster and is much more pronounced; also recorded: arise much faster and was more pronounced”. Moreover, the “antibiotic susceptibility profile of the strain” value in [10] is on record as “sensitive”.

Values taken from patent US10934326B2, “Peripheral modifications on pocket-redesigned vancomycin analogs synergistically improve antimicrobial potency and durability” (priority 2016, dated 2021).
